In article PMC2807854, “Monoketone analogs of curcumin, a new class of Fanconi anemia pathway inhibitors” (Molecular Cancer, 2009):

Columns and labels:
[1] = system: xFANCD2-Ub (FANCD2 monoubiquitylation); assay: Xenopus cell-free FA pathway assay: DNA substrate-induced xFANCD2 monoubiquitylation (immunoblot, densitometry); assay type: biochemical, Xenopus laevis
Experimental: (§1) A series of monoketone analogs of curcumin [18] was evaluated in Xenopus egg extracts where DNA substrate-induced xFANCD2-Ub is used as a readout of FA pathway performance. Phosphorylation of MRE11 (MRE11-P), a member of the MRN DNA damage repair pathway was monitored to assess the cross-specificity of the compounds. For each compound, IC50 values were determined from serial dilution experiments and densitometry analysis of immunoblots.
(§2) IC50 values were determined using immunoblots of plasmid-activated extracts treated with a range of concentrations for each compound (0, 10, 25, 60, 150, 400, 1000, 3000 μM). A representative experiment is shown (out of 3 repeats). B) Structure of curcumin and monoketone analogs. […] Activated extracts were treated with 1 mM each compound and phosphorylation of RPA32 and H2AX monitored by immunoblot.
(§3) Preparation of Xenopus laevis low-speed extracts and the FA pathway assay were described previously.
(§4) Fitted curves were determined from experimental data using IgorPro. The concentration of compound that induces 50% inhibition of the measured endpoint (i.e. FANCD2 ubiquitylation, Mre11 phosphorylation and cell survival) was then plotted on the fitted curve.

[2] = system: xMRE11-P (MRE11 phosphorylation); assay: MRE11 phosphorylation in activated Xenopus extracts (immunoblot); assay type: biochemical, Xenopus laevis
Experimental: as §1, §2, §3, §4

[3] = system: hFANCD2 foci in HeLa cells; assay: Hydroxyurea-induced hFANCD2 foci in HeLa cells (immunofluorescence); assay type: cell-based; details: Homo sapiens, cells with more than 5 foci, read-out: inhibition of hFANCD2 foci formation IC50
Experimental: A) Hydroxyurea-induced FANCD2-Ub in HeLa cells is inhibited by EF24 at lower concentrations than curcumin. hFANCD2-Ub was monitored by immunoblot and densitometry analysis to determine IC50. B) Hydroxyurea-induced hFANCD2 foci formation is inhibited by EF24. hFANCD2 foci were detected by immunofluorescence and the percentage of cells with more than 5 foci was determined for each treatment. Histograms represent the average of 3 experiments. Error bars represent standard deviation.
To confirm inhibition of the FA pathway using another readout, we monitored the effect of EF24 on HU-induced hFANCD2 foci in HeLa cells (Fig. 4B). IC50 values for inhibition of foci formation were in the same range as IC50 values for hFANCD2-Ub inhibition, an expected result since hFANCD2-Ub but not the unmodified hFANCD2 is competent to form foci.
hFANCD2 ubiquitylation assay and immunofluorescence assays in HeLa cells have been described elsewhere.

309ATM KO cells = assay: Survival assay (MTS), ATM KO mouse kidney cells; assay type: cell-based
Source text: (§5) To test this possibility, we compared the effects of curcumin and EF24 in an ATM KO mouse kidney cell line (309ATM KO) and its isogenic, wild type counterpart (334ATM WT). As expected from ATM deficiency, 309ATM KO cells were more sensitive to ionizing irradiation than 334ATM WT (Additional File 1 - Fig. S3). We next treated these cell lines with various concentrations of EF24 and measured their survival after 72 hrs.
(§6) Figure 6 EF24 but not curcumin or DRB is more toxic to ATM-deficient mouse kidney cells than wild-type cells. A) 309ATM KO and 334ATM WT cells were treated with various concentrations of EF24. Cell viability was measured after 3 days by MTS assay. Each point represents the mean of 3 repeats. Error bars represent standard deviation. B) Similar experiment was performed using curcumin.
(§7) HSC72OT and HSC72OT+A cells were seeded at 5,000 per well in 96-well plates, and treated 24 hrs later with various concentrations of compounds or DMSO (1 μl in 100 μl medium). 309ATM KO and 334ATM WT cells were seeded at 7,000 per well and treated immediately. Cell survival was measured after 3 days using the CellTiter 96 AQueous One Solution Cell Proliferation Assay (Promega) following the recommendations from the manufacturer. All experiments were done in triplicate.
as §4

334ATM WT cells = assay: Survival assay (MTS), ATM wild-type mouse kidney cells; assay type: cell-based; details: Mus musculus, 72 hrs, read-out: cell survival IC50 WT
Source text: as §5, §6, §7, §4

[4] = system: xCHK1-P (ATR target CHK1); assay: CHK1 phosphorylation in DNA-stimulated Xenopus extracts (immunoblot); assay type: biochemical, Xenopus laevis; details: Fig. S4
Experimental: Since both proteins are the target of the DNA damage signaling and checkpoint kinases ATM and ATR [28, 44], we tested whether EF24 treatment affected the phosphorylation status of a classic ATR target, CHK1 [45].
EF24 inhibits phosphorylation of CHK1 (CHK1-P) in DNA-stimulated Xenopus extracts. The EF24 blot shown in Fig. 6B was reprobed with a phospho-CHK1 specific antibody. Inhibition of plasmid-induced xCHK1-P was apparent at 400 µM EF24 treatment. (*) A non-specific band was used as loading control. See legend of Fig. 7B for […]

HeLa cells = assay: Cell cycle profile of HeLa cells by FACS (PI DNA content); assay type: cell-based, human; details: 8 hrs
Experimental: As the activity of the FA pathway is cell cycle dependent, we monitored the effect of HU and EF24 on the cell cycle by FACS analysis.
Hela cells were treated for 8 hrs with 2mM HU and/or 2 mM EF24 as indicated, stained with PI and subjected to DNA content analysis by FA C S. (A) DNA content profiles are shown with M1: 2N DNA (G1 phase), M2: 2N<DNA<4N (S phase), M3: 4N DNA (G2/M phases). (B) Percentage of cells in each phase for each treatment. A representative experiment (from 2 repeats) is shown.
As the activity of the FA pathway is cell-cycle dependent, we tested wheth e r the effect of EF24 on HU-induced FANCD2-L correlated with differences in cell cycle p r ofile.
G2/M cells, consistent with the fact that HU efficiently blocks replication. On the other hand, cells treated with EF24 accumulated […]
Materials and Methods. For FACS analysis, cells were trypsinized, fixed in 70% EtOH and stained for 16 hrs at 4 °C in p r opidium iodide (PI) solution (40 µg/ml PI, 0.2 mg/ml RNAse A, 0.1% triton in PBS). For each point, 10000 gated cells were counted using a FACSCalibur flow cytometer (BD Biosciences). […]

## O=C1/C(=C/c2ccccc2F)CNC/C1=C\c1ccccc1F [EF24, 3,5-bis(2-flurobenzylidene)piperidin-4-one]
[1]; 1 mM, Fig. S1 lane 7
  xFANCD2-Ub at single concentration: completely inhibited
[1]; activated Xenopus extracts, serial dilutions up to 3000 μM
  activity against xFANCD2-Ub in Xenopus extracts: strong activity against xFANCD2-Ub
[1]; plasmid-activated Xenopus extracts, Fig. 7B, read-out: xFANCD2-Ub inhibition IC50
  IC50: 150 µM
[1]; ratio of EC50 values in Xenopus extracts
  times more active than BMS-345541 for xFANCD2-Ub inhibition and IκB-α stabilization: 10-15 times
[2]
  effect on xMRE11 phosphorylation: inhibits the phosphorylation of xMRE11
[3]
  IC50: 300 nM
309ATM KO cells; 72 hrs survival, KO vs WT
  sensitivity of 309ATM KO cells compared to 334ATM WT cells: twofold more sensitive
309ATM KO cells; Mus musculus, 309ATM KO cells, 72 hrs, MTS, read-out: cell survival IC50 KO
  IC50: 2600 nM
334ATM WT cells
  IC50: 5.8 µM
[4]
  concentration at which inhibition of xCHK1-P was apparent: 400 µM
HeLa cells; 2 mM EF24 as printed
  cell cycle profile, compound alone: accumulated
HeLa cells; 2mM HU
  cell cycle profile, compound in combination with HU compared to untreated cells: no significant change in the cell cycle profile
